Data: paper PMC8019567 (Parasite, 2021)
Values after ≈ are worked out from the molar mass of the structure shown. Read-outs that look alike come from different tables or passages of the source.

How the values were obtained:
[1] = Study #2: dose proportionality/linearity after a single topical dose of NexGard Combo at 0.5x, 1x, 2x; type: in vivo, cats
Method: Blood samples were collected prior to treatment and over a period of 91 days after the treatment, as detailed in Table 1. […] Dose proportionality for the three active ingredients was assessed by calculating the linear relationship between AUC or Cmax and the dose using the simple linear regression model.

[2] = in vivo
Source text: (§1) All topical treatments were applied on one spot directly on the skin, after parting the hair, in the midline of the neck between the base of the skull and the shoulder blades. The intra-venous injection was given in the cephalic vein.
(§2) All blood samples were collected into lithium heparin tubes and processed into plasma by centrifugation.
(§3) This study was designed to evaluate the main pharmacokinetic parameters (Cmax, Tmax, Clast, Tlast, half-life, AUC, bioavailability) of the three compounds administered topically once in the novel formulation at the recommended minimum dose, and the non-interference of the three compounds between each other.
(§4) Group 2 was treated topically with esafoxolaner alone, formulated with identical solvents/excipients as those of the novel formulation, for non-interference evaluation of esafoxolaner. […] Group 4 was treated intravenously with esafoxolaner for bioavailability calculation of topical esafoxolaner in the novel formulation.
(§5) The cat plasma samples and internal standards were subjected to semi-automated solid phase extraction in a 96-well plate format followed by reversed-phase HPLC with gradient elution. The extracted analytes were quantified by an AB Sciex API 5000 mass spectrometer system using an electrospray interface. […] Chromatograms were integrated by the Analyst® 1.6.2 software and peak areas were determined.
(§6) The validated lower and upper limits of quantitation were 0.2 and 100 ng/mL, respectively. Sample concentrations were determined based on a fortified matrix calibration curve ranging from 0.2 to 100 ng/mL for each analyte with quality control samples, control plasma samples, and acceptance criteria according to EMA and FDA guidelines [4, 7]. Repeatability (precision), accuracy, assay specificity, dilution, recovery and matrix effect, carryover, stability in plasma and all solutions was established.
(§7) Pharmacokinetic (PK) parameters were calculated from individual plasma concentrations using the non-compartmental analysis function of WinNonlin® software (Phoenix 64 Build, version 6.3). The non-compartmental approach was consistent with the extravascular (topical) or IV bolus route of administration.
(§8) The peak drug plasma concentration Cmax and the time from dosing to the maximum concentration values Tmax were obtained directly from plasma concentration versus time data for each cat and then averaged for each topical treatment group. The terminal elimination phase was determined using at least the final three observed concentrations and not including Cmax. The first order rate constant, λz, associated with the terminal log-linear portion of the curve was estimated via linear regression of the log plasma concentration versus time curve. The terminal plasma half-life using ln (2)/λz was calculated for each animal, and then averaged for each treatment group. The area under the concentration versus time curve (AUC) from the time of dosing to the time to the last quantifiable concentration (AUC0−Tlast) was calculated using the linear up, log down trapezoidal method, and extrapolated to infinity (AUC0−inf) using the formula AUC0−Tlast + Clast/λz.
(§9) The systemic clearance of esafoxolaner in plasma (Cls) defined as dose/AUC0−inf, and the volume of distribution at steady state (Vss), which is AUMC0−inf/AUC0−inf × Cls, was calculated from WinNonlin® for the IV esafoxolaner group only. Due to the long terminal plasma half-life of esafoxolaner, each cat was not used as its own control and bioavailability was calculated on the average.

[3] = system: ticks (Ixodes scapularis); parameters: method as in internal Sponsor’s data; details: plasma level, ref internal Sponsor’s data; cited from earlier work
[4] = system: C. felis; parameters: method as in internal Sponsor’s data; details: plasma level, ref internal Sponsor’s data; cited from earlier work
[5] = first (pilot) study; topical esafoxolaner only, twice at a 28-day interval, 23× the maximum exposure dose; cats; cited from earlier work
[6] = in vivo; details: topical or ocular, 10 mg/kg
Source text: as §1, §2, §3, §4, §5, §6, §7, §8, §9

[7] = parameters: method as in PMID 24703069; details: topical Broadline; cats; cited from earlier work
[8] = system: ear mites; parameters: method as in PMID 29887026; details: off-label in cats, 2.5 mg/kg; cited from earlier work
[9] = Study #2: multiple-dose kinetics, accumulation and time to steady state (five topical doses at 28-day intervals); type: in vivo; details: repeated topical NexGard Combo at minimum recommended dose at 4-week intervals; cats
Method: Group 4, the accumulation and time to steady state group, was treated five times at 28-day intervals, topically with NexGard® Combo at the minimum recommended dose. In this group, blood samples were collected prior to each treatment, during the 4 weeks following each treatment, and for 8 weeks after the last treatment, as detailed in Table 1.
Chromatograms were integrated by the Analyst® 1.6.2 software and peak areas were determined.
The validated lower and upper limits of quantitation were 0.2 and 100 ng/mL, respectively. Sample concentrations were determined based on a fortified matrix calibration curve ranging from 0.2 to 100 ng/mL for each analyte with quality control samples, control plasma samples, and acceptance criteria according to EMA and FDA guidelines.
Accumulation ratios were calculated using Cmax and AUC for the three active ingredients after the 1st and 5th dose following five topical doses of the novel formulation.

[10] = Study #1: single-dose pharmacokinetics and non-interference in cats (plasma, LC-MS/MS); details: NexGard Combo single topical at minimum recommended dose
Source text: as §1, §2, §3, §4, §5, §6, §7, §8, §9

[11] = 0.5× group compared to 1× group
[12] = NexGard Combo single topical 0.5× (esafoxolaner 0.72, praziquantel 5, eprinomectin 0.25 mg/kg), cats, mean
[13] = NexGard Combo single topical 1× (esafoxolaner 1.44, praziquantel 10, eprinomectin 0.5 mg/kg), cats, mean
[14] = NexGard Combo single topical 2× (esafoxolaner 2.88, praziquantel 20, eprinomectin 1 mg/kg), cats, mean

In the case of `O=C(CNC(=O)c1ccc(C2=NO[C@@](c3cc(Cl)cc(C(F)(F)F)c3)(C(F)(F)F)C2)c2ccccc12)NCC(F)(F)F` [Esafoxolaner, esafoxolaner], the “dose proportionality of PK parameters” value ([1]; in vivo) is reported as “dose-proportional”, the “persistence of a quantifiable plasma concentration” value ([1]; in vivo) is reported as “more than 13 weeks” and the “Vss (volume of distribution)” value [2] is reported as 4.0 L/kg. For the same compound, the “absolute (topical) bioavailability” value [2] was 47.2%, the “time until which efficacious plasma levels (EC90) were maintained, from 24 h” value [2] was 6-8 weeks and the “AUC0−Tlast” value ([2]; iv, 1.44 mg/kg) was 9586 ± 1985 ng·days/mL. The “AUC0−inf” value ([2]; iv, 1.44 mg/kg) was 10,542 ± 2029 day × ng/mL, the “Cl (systemic clearance)” value ([2]; iv, 1.44 mg/kg) was 5.87 ± 1.23 mL/h/kg and the “T1/2 (plasma half-life)” value ([2]; iv, 1.44 mg/kg) was 504 ± 101 h. The “Vss (volume of distribution at steady-state)” value ([2]; iv, 1.44 mg/kg) was 4.016 ± 1.19 L/kg, the “half-life, range of individuals” value ([2]; iv, 1.44 mg/kg) was 355 to 631 h and the “AUC0−Tlast” value ([2]; topical or ocular, 1.44 mg/kg) was 6368 ± 1665 ng·days/mL. For the same compound, the “AUC0−inf” value ([2]; topical or ocular, 1.44 mg/kg) was 7181 ± 2250 ng·days/mL, the Cmax ([2]; topical or ocular, 1.44 mg/kg) was 218 ± 68 ng/mL and the “T1/2 (plasma half-life)” value ([2]; topical or ocular, 1.44 mg/kg) was 499 ± 154 h. The Tmax ([2]; topical or ocular, 1.44 mg/kg) was 90 ± 74.4 h, the “individual plasma half-lives (range)” value ([2]; topical or ocular, 1.44 mg/kg) was 19.4 to 27.8 days and the EC90 [3] was 0.0431 µg/mL (≈ 0.0689 µM). For the same compound, the EC90 [4] was 0.0191 ± 0.0021 µg/mL (≈ 0.0305 µM) and the adverse reactions [5] was “no significant adverse reactions”.

With `O=C(C1CCCCC1)N1CC(=O)N2CCc3ccccc3C2C1` (stereo not drawn) [Praziquantel, praziquantel] the Cmax ([1]; in vivo, topical or ocular, 5 mg/kg) was 54.7 ± 28.8 ng/mL, the Cmax ([1]; in vivo, topical or ocular, 10 mg/kg) was 126 ± 87.2 ng/mL and the Cmax ([1]; in vivo, topical or ocular, 20 mg/kg) was 317 ± 209 ng/mL. It also gave a Cmax [6] of 107 ± 59 ng/mL, a Tmax [6] of 7.01 h and a half-life [6] of 103 h. The “time at which maximum concentrations were reached (range)” value ([2]; cat) was 4 to 8 h, the “time of last quantifiable plasma concentrations (range)” value ([2]; cat) was 7 to 42 days and the “bioavailability in the Broadline formulation” value [7] was 45%.

In the case of `O=C(CNC(=O)c1ccc(C2=NOC(c3cc(Cl)cc(C(F)(F)F)c3)(C(F)(F)F)C2)c2ccccc12)NCC(F)(F)F` (stereo not drawn) [afoxolaner], the “acaricidal efficacy against ear mites” value [8] is given as “efficacious”.

With eprinomectin the “AUC0−Tlast Ratio” value [1, 11] was 0.5, the “Cmax Ratio” value [1, 11] was 0.4 and the “dose proportionality of PK parameters” value ([1]; 0.5× to 2× the minimum dose (esafoxolaner 0.72–2.88, praziquantel 5–20, eprinomectin 0.25–1.0 mg/kg), single topical NexGard Combo) was “dose-proportional”. The “AUC0−Tlast Ratio” value ([1]; 2× group compared to 1× group) was 2.4, the “Cmax Ratio” value ([1]; 2× group compared to 1× group) was 2.3 and the “AUC0−Tlast” value [1, 12] was 53.6 ± 19.9 ng·days/mL. For the same compound, the Cmax [1, 12] was 9.44 ± 4.26 ng/mL, the “AUC0−Tlast” value [1, 13] was 97.8 ± 37.4 ng·days/mL and the Cmax [1, 13] was 24.1 ± 20.8 ng/mL. The “AUC0−Tlast” value [1, 14] was 233 ± 133 ng·days/mL, the Cmax [1, 14] was 54.3 ± 35.8 ng/mL and the “dose by which steady state was reached” value [9] was “fifth and five”. The “bioavailability in the Broadline formulation” value [7] was 31%, the “mean Tmax” value [10] was 35 h and the “time to concentrations below the limit of quantitation, on average” value ([10]; LLOQ 0.2 ng/mL) was 28 days.
